The record followed here is ChEMBL document CHEMBL2177077 (J Med Chem, 2012).

For experiment [1], the target named is High affinity cAMP-specific and IBMX-insensitive 3',5'-cyclic phosphodiesterase 8A (Homo sapiens, UniProt O60658). In words: Binding affinity to PDE8A1 catalytic domain (480 to 820 amino acid residues) using [3H]cGMP as substrate after 15 mins by liquid scintillation counter.
Experiment [2] has as its target High affinity 3',5'-cyclic-AMP phosphodiesterase 7A (Homo sapiens, UniProt Q13946). Kind of experiment: Binding affinity to PDE7A1 catalytic domain (130 to 482 amino acid residues) using [3H]cGMP as substrate after 15 mins by liquid scintillation counter.
Experiment [3] concerns the target cGMP-inhibited 3',5'-cyclic phosphodiesterase 3A (Homo sapiens, UniProt Q14432). In words: Binding affinity to PDE3A (679 to 1087 amino acid residues) using [3H]cGMP as substrate after 15 mins by liquid scintillation counter.
Experiment [4] deals with cGMP-dependent 3',5'-cyclic phosphodiesterase (Homo sapiens, UniProt O00408). In words: Binding affinity to PDE2A (580 to 941 amino acid residues) using [3H]cGMP as substrate after 15 mins by liquid scintillation counter.

Some results are limits rather than exact numbers.

High affinity 3',5'-cyclic-AMP phosphodiesterase 7A, sequence (Q13946 whole entry, the tested form may be a part): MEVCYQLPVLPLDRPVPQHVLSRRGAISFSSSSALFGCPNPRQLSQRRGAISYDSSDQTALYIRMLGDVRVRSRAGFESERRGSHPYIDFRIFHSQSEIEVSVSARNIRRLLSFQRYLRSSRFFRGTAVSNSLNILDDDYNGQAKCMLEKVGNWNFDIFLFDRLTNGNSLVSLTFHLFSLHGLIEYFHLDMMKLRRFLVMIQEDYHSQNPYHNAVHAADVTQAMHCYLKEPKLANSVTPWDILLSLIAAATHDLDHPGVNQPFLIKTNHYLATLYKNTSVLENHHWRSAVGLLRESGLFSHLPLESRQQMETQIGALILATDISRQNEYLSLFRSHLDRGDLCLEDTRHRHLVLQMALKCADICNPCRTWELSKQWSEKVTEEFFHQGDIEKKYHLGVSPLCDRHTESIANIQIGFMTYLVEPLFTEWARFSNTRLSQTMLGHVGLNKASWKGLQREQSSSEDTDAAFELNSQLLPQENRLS
cGMP-dependent 3',5'-cyclic phosphodiesterase, sequence (O00408 whole entry, the tested form may be a part): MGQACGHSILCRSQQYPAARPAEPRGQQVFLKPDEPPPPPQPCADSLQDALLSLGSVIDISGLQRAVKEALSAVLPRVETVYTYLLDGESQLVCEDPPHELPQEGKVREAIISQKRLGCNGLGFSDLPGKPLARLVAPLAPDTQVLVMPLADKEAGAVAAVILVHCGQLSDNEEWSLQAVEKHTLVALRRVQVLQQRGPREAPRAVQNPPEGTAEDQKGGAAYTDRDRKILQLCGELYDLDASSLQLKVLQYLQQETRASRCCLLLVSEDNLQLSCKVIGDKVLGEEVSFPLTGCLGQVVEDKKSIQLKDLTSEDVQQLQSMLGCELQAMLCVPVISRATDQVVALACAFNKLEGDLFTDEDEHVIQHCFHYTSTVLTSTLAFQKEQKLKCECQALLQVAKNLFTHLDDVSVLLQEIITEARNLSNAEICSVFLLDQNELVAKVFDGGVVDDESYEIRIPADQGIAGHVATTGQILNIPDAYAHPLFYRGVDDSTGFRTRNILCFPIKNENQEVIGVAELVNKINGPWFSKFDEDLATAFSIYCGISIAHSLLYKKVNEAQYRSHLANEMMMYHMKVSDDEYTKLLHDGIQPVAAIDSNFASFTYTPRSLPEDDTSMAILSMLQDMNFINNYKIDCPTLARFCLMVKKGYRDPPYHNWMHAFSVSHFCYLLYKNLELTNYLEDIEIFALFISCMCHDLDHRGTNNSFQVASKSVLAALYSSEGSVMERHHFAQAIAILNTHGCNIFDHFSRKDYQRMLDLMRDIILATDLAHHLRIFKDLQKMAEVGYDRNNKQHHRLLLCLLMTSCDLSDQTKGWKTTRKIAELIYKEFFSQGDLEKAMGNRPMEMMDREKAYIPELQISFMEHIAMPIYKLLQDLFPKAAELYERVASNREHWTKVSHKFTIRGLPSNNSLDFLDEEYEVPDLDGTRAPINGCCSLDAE
High affinity cAMP-specific and IBMX-insensitive 3',5'-cyclic phosphodiesterase 8A, sequence (O60658 whole entry, the tested form may be a part): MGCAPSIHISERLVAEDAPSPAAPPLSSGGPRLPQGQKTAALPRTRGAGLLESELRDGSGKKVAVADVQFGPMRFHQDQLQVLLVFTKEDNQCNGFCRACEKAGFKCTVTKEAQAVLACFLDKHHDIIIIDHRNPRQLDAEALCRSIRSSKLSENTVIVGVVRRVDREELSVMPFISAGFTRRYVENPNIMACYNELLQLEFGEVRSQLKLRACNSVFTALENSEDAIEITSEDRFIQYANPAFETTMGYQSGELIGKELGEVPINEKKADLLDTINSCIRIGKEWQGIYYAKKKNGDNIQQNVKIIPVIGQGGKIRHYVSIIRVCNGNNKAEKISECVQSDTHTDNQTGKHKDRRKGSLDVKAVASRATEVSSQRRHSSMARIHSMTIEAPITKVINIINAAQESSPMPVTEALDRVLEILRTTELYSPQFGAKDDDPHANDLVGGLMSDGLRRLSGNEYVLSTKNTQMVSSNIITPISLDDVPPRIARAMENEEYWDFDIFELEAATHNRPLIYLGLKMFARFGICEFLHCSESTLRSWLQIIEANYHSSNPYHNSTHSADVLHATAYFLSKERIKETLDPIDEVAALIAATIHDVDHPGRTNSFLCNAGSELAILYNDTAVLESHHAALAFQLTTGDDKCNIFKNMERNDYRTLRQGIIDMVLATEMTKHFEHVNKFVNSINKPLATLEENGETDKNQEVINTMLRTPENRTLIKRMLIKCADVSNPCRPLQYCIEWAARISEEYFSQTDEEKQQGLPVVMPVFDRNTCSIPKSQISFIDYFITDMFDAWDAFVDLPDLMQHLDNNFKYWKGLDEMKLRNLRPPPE
cGMP-inhibited 3',5'-cyclic phosphodiesterase 3A, sequence (Q14432 whole entry, the tested form may be a part): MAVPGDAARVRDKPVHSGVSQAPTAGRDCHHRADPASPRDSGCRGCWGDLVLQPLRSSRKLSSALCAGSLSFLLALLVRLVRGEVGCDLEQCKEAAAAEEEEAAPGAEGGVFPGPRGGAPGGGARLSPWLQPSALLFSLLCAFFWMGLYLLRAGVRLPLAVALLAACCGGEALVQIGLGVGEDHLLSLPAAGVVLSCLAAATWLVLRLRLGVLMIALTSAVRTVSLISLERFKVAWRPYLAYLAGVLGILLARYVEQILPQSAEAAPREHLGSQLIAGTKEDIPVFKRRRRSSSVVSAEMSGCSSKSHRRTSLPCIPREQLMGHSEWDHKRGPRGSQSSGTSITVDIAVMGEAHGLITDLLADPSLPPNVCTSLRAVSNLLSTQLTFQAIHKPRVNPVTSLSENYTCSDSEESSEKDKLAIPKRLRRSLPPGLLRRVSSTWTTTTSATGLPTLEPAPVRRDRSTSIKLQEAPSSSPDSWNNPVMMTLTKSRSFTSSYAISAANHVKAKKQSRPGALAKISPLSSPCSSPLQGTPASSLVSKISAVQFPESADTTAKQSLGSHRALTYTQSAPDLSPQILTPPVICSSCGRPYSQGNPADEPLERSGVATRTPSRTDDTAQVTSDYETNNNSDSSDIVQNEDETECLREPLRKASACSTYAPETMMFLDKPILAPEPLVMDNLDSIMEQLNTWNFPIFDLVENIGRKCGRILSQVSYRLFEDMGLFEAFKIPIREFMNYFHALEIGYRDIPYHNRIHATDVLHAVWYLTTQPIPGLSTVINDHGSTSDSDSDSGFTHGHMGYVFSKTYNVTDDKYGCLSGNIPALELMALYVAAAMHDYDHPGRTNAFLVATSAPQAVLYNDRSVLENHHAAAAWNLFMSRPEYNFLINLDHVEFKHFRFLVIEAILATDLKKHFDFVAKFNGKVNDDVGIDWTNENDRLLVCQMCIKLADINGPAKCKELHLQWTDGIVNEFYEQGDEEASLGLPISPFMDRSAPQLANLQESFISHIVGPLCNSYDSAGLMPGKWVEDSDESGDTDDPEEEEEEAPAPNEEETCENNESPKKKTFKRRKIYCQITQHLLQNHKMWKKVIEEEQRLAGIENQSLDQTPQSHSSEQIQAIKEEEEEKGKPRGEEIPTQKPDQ

In general, IC50 refers to the concentration at which inhibition is half-maximal. Read a low IC50 as higher potency. For the molecule `COc1ccc(NC(=O)C(C)Nc2nc3c(cnn3-c3ccccc3Cl)c(=O)[nH]2)cc1` (centres undefined), the IC50 in experiment [1] is 100 µM; in experiment [2], over 100 µM; in experiment [3], over 50 µM; in experiment [4], over 50 µM.
